Data set [1] relates to rosette-forming cells (RFC) in the spleen and/or thymus. Kind of data set: Activity for suppressing immune response in BALB/C strain mice: rosette-forming cells (RFC). It is filed as in vivo, female BALB/C strain mice. The conditions noted are these: 30 mg/kg orally, 4 days after sensitization; for No. of RFC, Spleen: control 135 ± 27 (for A), 172 ± 32 (for B), B **p < 0.01 vs control. The procedure:
(§1) Female BALB/C strain mice (6 weeks old) were used by dividing into groups of 6 animals. The sensitization was made by intraperitoneal injection of antigen: 5×10^8 sheep red blood cells. Each mouse was orally administered with the test compound on the same day and the next day of the sensitization. Four days after the sensitization, the number of plaque-forming cells (PFC) in the spleen, and the number of rosette-forming cells (RFC) in the spleen and/or thymus were measured in a usual manner.

A further data set deals with adjuvant arthritis. Kind of data set: Anti-adjuvant arthritis activity in rats. It is filed as in vivo, male Lewis rats. The procedure:
(A model disease of rheumatoid arthritis) Male Lewis rats (8-9 weeks old) were used. Adjuvant arthritis was caused by the method described by B. B. Newbould in "Brit. J. Pharmacol.", 21, 127 (1963). Twenty-one days after the subcutaneous injection of a suspension of killed tubercle bacillus in Freund's adjuvant into the tail of the rats, the severity of arthritis was assayed as the hindleg volume. Each group of the rat was orally administered with the test compound once a day.

The test system of a further data set is male dd mice. Kind of data set: Acute toxicity. The class given is in vivo. Conditions: p.o.; printed beside LD50 >1000 mg/kg. The procedure:
(§2) Acute toxicity was determined using male dd mice (8 weeks old).

The nature of a further data set: Acute toxicity. It is filed as in vivo. Conditions: mouse, in vivo. The procedure:
as §2

Data set [2] relates to plaque-forming cells (PFC) in the spleen. Kind of data set: Activity for suppressing immune response in BALB/C strain mice: plaque-forming cells (PFC). It is filed as in vivo, female BALB/C strain mice. Conditions: 30 mg/kg orally, same and next day of sensitization; 4 days after sensitization; control 17.4 ± 2.3 (for A), 9.5 ± 1.0 (for B); **p < 0.01 vs control. The procedure:
as §1

For data set [3], the system named is rosette-forming cells (RFC) in the spleen and/or thymus. Kind of data set: Activity for potentiating immune response in C57BL/6 strain mice: rosette-forming cells (RFC). Conditions: 30 mg/kg orally, 6 days after sensitization; for No. of RFC, Spleen: control 75 ± 17 (for A), 55 ± 11 (for B), **p < 0.01 vs control. The class given is in vivo, female C57BL/6 strain mice. The procedure:
Female C57BL/6 strain mice (6 weeks old) were used dividing into groups of 6 animals. The sensitization was made by intraperitoneal injection of antigen: 5×10^8 sheep red blood cells. Each mouse was orally administered with the test compound on the same day and next day of the sensitization. Six days after the sensitization, the number of rosette-forming cells (RFC) in the spleen and/or thymus was measured in a usual manner.

The subject of another data set is peritoneal macrophages. Kind of data set: Activation of peritoneal macrophage in mice (phagocytosis of yeast). The conditions noted are these: 0 μM control 33.9 ± 0.8. The class given is cell-based, male dd mice. The procedure: Peritoneal macrophages were obtained from male dd mice (8 weeks old). After washing macrophages, the cells were adjusted to 5×10^6 macrophages/ml in Hanks' solution. A mixture containing 100 μl of the macrophage suspension, 50 μl of mice serum and 10 μl of the test compound was preincubated at 37° C. for 10 minutes, and then 50 μl of yeast cells (2.5×10^8 /ml) was added thereto. After further incubation of the mixture at 37° C. for 20 minutes, the number of macrophages phagocytosing yeast was counted in a usual manner.

Entries after “also recorded” stand apart in the source; their conditions may differ. Structures can show the parent of a compound that is named as a salt.

2 molecules from US4465681A, “Bis-(aminoalkoxy)-phenyl, pyridyl ketones, and use as immunological agents” (Yoshitomi Pharmaceutical Industries Ltd., priority 1980, dated 1984) can be followed below.

With `CN(C)CCOc1ccc(C(=O)c2cccnc2OCCN(C)C)cc1` [Test compound A, 2,4'-bis(2-dimethylaminoethoxy)-3-benzoylpyridine dihydrochloride hemihydrate], the “No. of RFC, Thymus” value in data set [1] (control 9.5 ± 1.0, **p < 0.01 vs control) is 1.2 ± 0.4 × 10^4; in data set [3] (control 2.8 ± 0.5, **p < 0.01 vs control), 7.4 ± 1.1 × 10^4. The “No. of RFC, Spleen” value in data set [1] is given as 126 ± 24 × 10^4; in data set [3] it was 214 ± 46 × 10^4. Besides, the “Volume of Hindleg” value in the data set on adjuvant arthritis (50 mg/kg orally once a day, twenty-one days after adjuvant injection, control 2.40 ± 0.20, **p < 0.01 vs control) worked out at 1.17 ± 0.29 mL. Besides, in the data set on adjuvant arthritis (dose of 50 mg/kg, dihydrochloride hemihydrate, 50 mg/kg), the “anti-adjuvant arthritis activity (in words)” value is recorded as “significant inhibition of adjuvant arthritis; also recorded: has anti-arthritis activity”. Moreover, the dead/total animals in the data set on male dd mice was 1/6. Also, the LD50 (as a rule, the dose expected to kill half of the subjects tested) in the data set “Acute toxicity” (ip) was 300 mg/kg; in the data set “Acute toxicity” (po), greater than 1000 mg/kg. Also, in data set [2], the “No. of PFC, Spleen” value was 9.0 ± 1.4 × 10^4. Further, the Phagocytosis was 35.5 ± 1.9% in the data set with peritoneal macrophages (10 μM); 46.5 ± 2.7% in the data set on peritoneal macrophages (30 μM, **p < 0.01 vs control); 54.3 ± 3.1% with peritoneal macrophages (100 μM, **p < 0.01 vs control).
For the molecule `CC(CN(C)C)Oc1ccc(C(=O)c2cccnc2OC(C)CN(C)C)cc1` (stereo not shown) [Test compound B, 2,4'-bis(1-methyl-2-dimethylaminoethoxy)-3-benzoylpyridine dioxalate], the “No. of RFC, Spleen” value in data set [1] is recorded as 88 ± 10 × 10^4; in data set [3], 149 ± 22 × 10^4. Further, the dead/total animals with male dd mice is on record as 0/5. Besides, the LD50 is 250 mg/kg in the data set “Acute toxicity” (ip) and greater than 1000 mg/kg in “Acute toxicity” (po). Also, the “No. of PFC, Spleen” value in data set [2] was 4.6 ± 0.8 × 10^4. For the same molecule, the Phagocytosis with peritoneal macrophages (10 μM) was 40.8 ± 2.7%; with peritoneal macrophages (30 μM, **p < 0.01 vs control), 49.6 ± 2.1%; in the data set with peritoneal macrophages (100 μM, **p < 0.01 vs control), 63.4 ± 6.7%.
